Legend:
human cathepsin F = molecular target: T1, human cathepsin F (Homo sapiens, UniProt Q9UBX1); experiment: Cathepsin F assay (hCat F); assay type: biochemical; conditions: human cathepsin F 10 nM, Z-Phe-Arg-AMC 8 μM, pH 5.5, 15 min preincubation; read-out: hCat F IP
T1 sequence (Q9UBX1 271-484): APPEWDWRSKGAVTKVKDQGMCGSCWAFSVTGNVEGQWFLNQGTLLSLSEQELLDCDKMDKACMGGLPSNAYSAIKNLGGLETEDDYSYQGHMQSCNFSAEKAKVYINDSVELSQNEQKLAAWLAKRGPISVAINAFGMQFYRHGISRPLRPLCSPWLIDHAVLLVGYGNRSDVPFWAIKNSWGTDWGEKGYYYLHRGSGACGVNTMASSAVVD
Method: Cathepsin F assay (hCat F)
(§1) Serial dilutions (⅓) from 500 μM down to 0.025 μM of test compounds were prepared in dimethyl sulfoxide (DMSO). Then 0.5 μL of DMSO from each dilution were added to 18.75 μL of assay buffer (MES, 50 mM (pH 5.5); EDTA, 2.5 mM; DTT, 2.5 mM and 10% DMSO) containing human cathepsin F (10 nM) in assay buffer solution. The assay solutions were mixed for 5-10 seconds on a shaker plate and incubated for 15 minutes at room temperature. Z-Phe-Arg-AMC (8 μM) in 6.25 μL of assay buffer was added to the assay solutions. Hydrolysis of the coumarin leaving group (AMC) was followed by spectrofluorometry (Exp, =360 nm; EmX=460 nm) for 20 minutes. Percent of inhibition were calculated by fitting experimental values to standard mathematical model for dose response curve.

human cathepsin K = human cathepsin K (UniProt P43236); experiment: Cathepsin K Assay (hrbCat K); assay type: biochemical; conditions: human cathepsin K 0.4 nM, Z-Leu-Arg-AMC 8 μM, pH 5.5, 15 min preincubation; read-out: hrbCat K IP
Method: Cathepsin K Assay (hrbCat K)
as §1, with “K (0.4” for “F (10”, “Z-Leu-Arg-AMC” for “Z-Phe-Arg-AMC”, “(Exλ=360” for “(Exp, =360”, “Emλ=460” for “EmX=460”, “30” for “20”

Compound	IC50 (human cathepsin F) [nM]	IC50 (human cathepsin K) [nM]
N#CC1(NC(=O)[C@@H]2CCCC[C@H]2c2oc(-c3ccc(F)cc3)nc2-c2ccc(N3CC4CC3CS4(=O)=O)cc2)CC1 (mixture of isomers) [Example 87, (1R,2R)-N-(1-cyanocyclopropyl)-2-(4-(4-((1R,4R and 1S,4S)-2,2-dioxido-2-thia-5-azabicyclo[2.2.1]heptan-5-yl)phenyl)-2-(4-fluorophenyl)oxazol-5-yl)cyclohexanecarboxamide]	1220	4.09
N#CC1(NC(=O)[C@@H]2CCCC[C@H]2c2oc(C3CC4CCC(C3)C4(F)F)nc2-c2ccc(N3CCS(=O)(=O)CC3)cc2)CC1 (mixture of isomers) [Example 109, (1R,2R)-N-(1-cyanocyclopropyl)-2-(2-((1R,3R,5S and 1R,3S,5S)-8,8-difluorobicyclo[3.2.1]octan-3-yl)-4-(4-(1,1-dioxidothiomorpholino)phenyl)oxazol-5-yl)cyclohexanecarboxamide]	1500	1.7
N#CC1(NC(=O)[C@@H]2CCCC[C@H]2c2oc(C3CCC(C(F)(F)F)CC3)nc2-c2ccc(N3CCS(=O)(=O)CC3)cc2)CC1 (mixture of isomers) [Example 111, (1R,2R)-N-(1-cyanocyclopropyl)-2-(4-(4-(1,1-dioxidothiomorpholino)phenyl)-2-((1R,4R and 1S,4S)-4-(trifluoromethyl)cyclohexyl)oxazol-5-yl)cyclohexanecarboxamide]	1060	1.83
CC(C#N)NC(=O)[C@@H]1CCCC[C@H]1c1oc(-c2ccc(F)cc2F)nc1-c1ccc(N2CCS(=O)(=O)CC2)cc1 (single isomer, unassigned) [Example 45, (1R,2R)-N-((R or S)-1-cyanoethyl)-2-(2-(2,4-difluorophenyl)-4-(4-(1,1-dioxidothiomorpholino)phenyl)oxazol-5-yl)cyclohexanecarboxamide]		32.7
N#CC1(NC(=O)[C@@H]2CCCC[C@H]2c2oc(N3CCOCC3)nc2-c2ccc(N3CCS(=O)(=O)CC3)cc2)CC1 [Example 47, (1R,2R)-N-(1-cyanocyclopropyl)-2-(4-(4-(1,1-dioxidothiomorpholino)phenyl)-2-morpholinooxazol-5-yl)cyclohexanecarboxamide]		3.11
N#CC1(NC(=O)[C@@H]2CCCC[C@H]2c2oc(-c3ccc(S(=O)(=O)C(F)(F)F)cc3)nc2-c2ccc(N3CCS(=O)(=O)CC3)cc2)CC1 [Example 104, (1R,2R)-N-(1-cyanocyclopropyl)-2-(4-(4-(1,1-dioxidothiomorpholino)phenyl)-2-(4-((trifluoromethyl)sulfonyl)phenyl)oxazol-5-yl)cyclohexanecarboxamide]		2.4

The remaining compounds from weak to strong by IC50 (human cathepsin K), led by results:

IC50 (human cathepsin F) [nM]	IC50 (human cathepsin K) [nM]	Compound
	14.5	N#CC1(NC(=O)[C@@H]2CCCC[C@H]2c2oc(-c3ccc(F)cc3F)nc2-c2ccc(C(=O)N3CCOCC3)cc2)CC1 [Example 120, (1R,2R)-N-(1-cyanocyclopropyl)-2-(2-(2,4-difluorophenyl)-4-(4-(morpholine-4-carbonyl)phenyl)oxazol-5-yl)cyclohexanecarboxamide]
	9.36	N#CC1(NC(=O)[C@@H]2CCCC[C@H]2c2oc(-c3ccc(F)cc3)nc2-c2ccc(N3CCOCC3)cc2)CC1 [Example 17, (1R,2R)-N-(1-cyanocyclopropyl)-2-(2-(4-fluorophenyl)-4-(4-morpholinophenyl)oxazol-5-yl)cyclohexanecarboxamide]
1520	1.7	N#CC1(NC(=O)[C@@H]2CCCC[C@H]2c2oc(C3CCC(F)(F)C3)nc2-c2ccc(N3CCS(=O)(=O)CC3)cc2)CC1 (mixture of isomers) [Example 114, (1R,2R)-N-(1-cyanocyclopropyl)-2-(2-((R and S)-3,3-difluorocyclopentyl)-4-(4-(1,1-dioxidothiomorpholino)phenyl)oxazol-5-yl)cyclohexanecarboxamide]
	1.1	N#CC1(NC(=O)[C@@H]2CCCC[C@H]2c2oc(-c3ccc(Cl)c(F)c3)nc2-c2ccc(N3CCS(=O)(=O)CC3)cc2)CC1 [Example 76, (1R,2R)-2-(2-(4-chloro-3-fluorophenyl)-4-(4-(1,1-dioxidothiomorpholino)phenyl)oxazol-5-yl)-N-(1-cyanocyclopropyl) cyclohexanecarboxamide]
